Experimental findings from patent publication US7902227B2, “C-7 isoxazolinyl quinolone / naphthyridine derivatives useful as antibacterial agents” (Janssen Pharmaceutica NV., priority 2008, dated 2011) are described below.

Common to all, as to type: cell-based
Assay [1] concerns Streptococcus pneumoniae ATCC 49619. Description: In vitro antibacterial activity (MIC), microdilution broth method (NCCLS), strain E. Conditions: ATCC49619, 35° C., 16-20 hours. Here is the method: (§1) Minimal inhibitory concentration (MIC) has been an indicator of in vitro antibacterial activity widely used in the art. The in vitro antimicrobial activity of representative compounds of the present invention was determined by the microdilution broth method following the test method from the National Committee for Clinical Laboratory Standards (NCCLS). This method is described in the NCCLS Document M7-A4, Vol. 17, No. 2, “Methods for Dilution Antimicrobial Susceptibility Test for Bacteria that Grow Aerobically—Fourth Edition”, which is incorporated herein by reference.
(§2) In this method two-fold serial dilutions of drug in cation adjusted Mueller-Hinton broth are added to wells in microdilution trays. The test organisms are prepared by adjusting the turbidity of actively growing broth cultures so that the final concentration of test organism after it is added to the wells is approximately 5×10^4 CFU/well.
(§3) Following inoculation of the microdilution trays, the trays are incubated at 35° C. for 16-20 hours and then read. […] The amount of growth in the wells containing the test compound is compared with the amount of growth in the growth-control wells (no test compound) used in each tray. As set forth in Table 4, representative compounds of the present invention were tested against a variety of pathogenic bacteria resulting in a range of activities depending on the organism tested.
On the technique in general: Dilution methods test growth across graded concentrations, often in twofold steps.

The subject of assay [2] is Staphylococcus aureus OC4172. Put plainly: In vitro antibacterial activity (MIC), microdilution broth method (NCCLS), strain A. Conditions: cation adjusted Mueller-Hinton broth, 35° C., 16-20 hours. Here is the method:
as §1, §2, §3

The test system of assay [3] is strain C, fluoroquinolone-resistant clinical isolate of Streptococcus pneumoniae. Description: In vitro antibacterial activity (MIC), microdilution broth method (NCCLS), strain C. Conditions: read-out: In vitro Antibacterial Activity MIC, C. The protocol:
as §1, §2, §3

The test system of assay [4] is strain D, fluoroquinolone-resistant clinical isolate of Streptococcus pneumoniae. Put plainly: In vitro antibacterial activity (MIC), microdilution broth method (NCCLS), strain D. Conditions: read-out: In vitro Antibacterial Activity MIC, D. The protocol: as §1, §2, §3
Assay [5] relates to strain B, fluoroquinolone-resistant clinical isolate of Streptococcus pneumoniae. Put plainly: In vitro antibacterial activity (MIC), microdilution broth method (NCCLS), strain B. Conditions: read-out: In vitro Antibacterial Activity MIC, B. Here is the method: as §1, §2, §3

For orientation: MIC means the least concentration at which growth counts as inhibited.

Values after ≈ are worked out from the molar mass of the structure shown.

Turning to `COc1ccc(C2=NOC3CN(c4nc5c(cc4F)c(=O)c(C(=O)O)cn5-c4ccc(F)cc4F)CC23)cn1` (stereo not drawn) [ID No. 102, 1-(2,4-Difluoro-phenyl)-6-fluoro-7-[3-(6-methoxy-pyridin-3-yl)-3a,4,6,6a-tetrahydro-pyrrolo[3,4-d]isoxazol-5-yl]-4-oxo-1,4-dihydro-[1,8]naphthyridine-3-carboxylic acid], the MIC in assay [1] is 1 µg/mL (≈ 1.86 µM); in assay [2] it was 0.06 µg/mL (≈ 0.112 µM); in assay [3] it was 16 µg/mL (≈ 29.8 µM); in assay [4], 2 µg/mL (≈ 3.72 µM); in assay [5], 4 µg/mL (≈ 7.44 µM).

Regarding `O=C(O)c1cn(C2CC2)c2nc(N3CC4ON=C(c5ccncc5)C4C3)c(F)cc2c1=O` (stereo not drawn) [ID No. 115], the MIC is 1 µg/mL (≈ 2.3 µM) in assay [1]; 0.06 µg/mL (≈ 0.138 µM) in assay [2]; 8 µg/mL (≈ 18.4 µM) in assay [3]; 4 µg/mL (≈ 9.19 µM) in assay [4]; 16 µg/mL (≈ 36.7 µM) in assay [5].

For `O=C(O)c1cn(-c2ccc(F)cc2F)c2nc(N3CC4ON=C(c5ccc(C(F)(F)F)nc5)C4C3)c(F)cc2c1=O` (stereo not drawn) [ID No. 103, 1-(2,4-Difluoro-phenyl)-6-fluoro-4-oxo-7-[3-(6-trifluoromethyl-pyridin-3-yl)-3a,4,6,6a-tetrahydro-pyrrolo[3,4-d]isoxazol-5-yl]-1,4-dihydro-[1,8]naphthyridine-3-carboxylic acid], the MIC in assay [1] was 2 µg/mL (≈ 3.48 µM); in assay [2], 0.25 µg/mL (≈ 0.434 µM); in assay [3], > 16 µg/mL; in assay [4] it was 4 µg/mL (≈ 6.95 µM); in assay [5], 8 µg/mL (≈ 13.9 µM).
